Experimental data published in US20040235965A1, “Utilization of rutins and aescins in the treatment of circulatory disturbances of the ear” (priority 2001, published 2004).

Experiments:
Assay type in all cases: in vivo, human
[1] = test system: patient with tinnitus and vertigo attacks; assay: Tinnitus pattern in patient case example 3; conditions: Case 3; 2250 mg troxerutin orally daily; 4th week of treatment
Procedure: (§1) patient with tinnitus and vertigo attacks for 4 months.
(§2) A 4-week therapy with 2250 mg of troxerutin orally daily followed. Under this, hearing improved in the 1st week by 10 dB in the low frequency range and by 5 dB in the high frequency range. There was no change in the frequency of vertigo attacks (1 to 4 times within 2 days).

[2] = test system: patient with tinnitus and vertigo attacks; assay: Frequency of vertigo attacks in patient case example 3; conditions: Case 3; 2250 mg troxerutin orally daily, 4-week therapy
Procedure: as §1, §2

[3] = test system: patient with hearing impairment; assay: Pure-tone threshold audiometry in patient case examples under oral therapy; conditions: 2250 mg troxerutin orally daily
Excerpt: as §1
Moderate hearing loss existed which was confirmed by pure-tone threshold audiometry to be a loss of hearing especially in the low and high frequency ranges. The underlying disease present was insulin-dependent diabetes mellitus. The findings existed for 4 months with the tendency for progressive worsening. […]

With “3′,4′,7-tris-O-(β-hydroxyethyl)rutin [troxerutin]” the tinnitus pattern [1] was “intermittent with relatively frequent absences which lasted for hours”, the “frequency of vertigo attacks” value [2] was “no change” and the “improvement in the audiogram, high-frequency range, right ear” value ([3]; Case 1, 4-week therapy) was 10 dB. The “improvement of audiogram, high frequency range” value ([3]; Case 2, after 1 week) was “minor improvement”, the “improvement of audiogram, low frequency range” value ([3]; Case 2, after 1 week) was 10 dB and the “improvement of hearing, low frequency range” value ([3]; Case 3, moderate hearing loss, 1st week) was 10 dB. For the same substance, the “improvement of hearing, high frequency range” value ([3]; Case 3, 1st week) was 5 dB, the “improvement of hearing, high frequency range” value ([3]; Case 4, week 3) was “marginally” and the “improvement of hearing, low frequency range” value ([3]; Case 4, week 3) was 10 dB.
